Here are results for one compound from patent publication US10071107B2, “Pharmaceutical composition for prevention, treatment or delay of Alzheimer's disease or dementia containing G protein-coupled receptor 19 agent as active ingredient” (SEOUL NATIONAL UNIVERSITY R&DB FOUNDATION, priority 2015, dated 2018).

In experiment [1] the test system is Alzheimer's animal model. Briefly: Blood analysis of inflammatory substances (bioplex). The class given is in vivo, mouse. The note with it: 1 mg/kg twice per week, total 20 times; FIG. 9. As to the method: [Experimental Method: Blood analysis] The blood was obtained from the mouse by cardiac blood collection or orbital blood collection. For analyzing the inflammatory substance, the obtained blood was left for 2 hours at room temperature and centrifuged, a supernatant was taken, and each inflammatory substance was quantitatively analyzed by using a kit and equipment for bioplex. In order to analyze biochemical and hematopoietic cells, the obtained blood was put in an appropriate tube or container and applied to a biochemical analyzer and a hematology analyzer, respectively, to obtain data. FIG. 9 illustrates a result of analyzing an inflammatory substance in the blood by extracting the blood of the mouse after 1 mg/kg of PBS or sodium taurodeoxycholate is injected to a control mouse and an Alzheimer's mouse twice per week and a total of 20 times.

The test system of experiment [2] is Alzheimer's animal model. Briefly: Blood analysis of biochemical components (metabolites). The note with it: 1 mg/kg twice per week, total 20 times; FIG. 10. The class given is in vivo, mouse. The method, then: [Experimental Method: Blood analysis] The blood was obtained from the mouse by cardiac blood collection or orbital blood collection. For analyzing the inflammatory substance, the obtained blood was left for 2 hours at room temperature and centrifuged, a supernatant was taken, and each inflammatory substance was quantitatively analyzed by using a kit and equipment for bioplex. In order to analyze biochemical and hematopoietic cells, the obtained blood was put in an appropriate tube or container and applied to a biochemical analyzer and a hematology analyzer, respectively, to obtain data. After 1 mg/kg of PBS or sodium taurodeoxycholate is injected to the control mouse and the Alzheimer's mouse twice per week and a total of 20 times, the blood of the mouse was extracted and then the biochemical components in the blood were analyzed. The result was illustrated in FIG. 10.

The subject of experiment [3] is Alzheimer's animal model (5×FAD). Briefly: TUNEL staining of apoptotic region in brain tissue. The class given is in vivo, mouse. The note with it: frontal cortex, FIG. 8. As to the method:
[Experimental Method: Tissue fluorescent staining] A mouse was anesthetized, the limbs were fixed and then the mouse was cut to expose the heart by scissors and tweezers. The upper right atrium was slightly cut by the scissors and punctured, a needle was put in the left ventricle, and PBS was injected and perfused. When the colors of the blood vessel and the organs turned to white, a 4% paraformaldehyde (PFA) solution was replaced and injected until muscle contraction occurred and the soles were hard. […] The cut tissue piece was attached on the slide by using a brush and blocked for preventing a nonspecific antibody binding, and then reacted with a specific antibody (coupled with a fluorescence) to a protein to be reported. […] The photographed image was converted into numeral values by measuring the fluorescent strength for each fluorescence by analysis software.
The brain tissue of the Alzheimer's model mouse administrated with the drug was extracted and a reduction of the lesion such as an apoptotic lesion in the frontal cortex and the hippocampus area was measured by fluorescent-staining, and the result was illustrated in FIG. 8. The PBS or sodium taurodeoxycholate was administrated in the Alzheimer's mouse and a region damaged by apoptosis in the frontal cortex of the administrated mouse was analyzed by TUNEL staining. […]

For experiment [4] the test system is unchanged. The class given is in vivo, mouse. Particulars: 1 mg/kg twice a week, total 20 times.
Experiment [5] concerns Alzheimer's mouse model (5×FAD). In words: Morris water maze (spatial learning, probe test). The class given is in vivo. Particulars: 1 mg/kg twice a week, total 20 times. As to the method:
[Experimental Method: Morris Water maze] An acryl-made platform having a diameter of 10 cm was installed in a circular water tank having a size of diameter×height=150 cm×80 cm and a camera was installed at the center of the water tank on the ceiling where the water tank was placed. Around the water tank, a horizontal cue, a vertical grid cue, and a circular object cue were disposed, respectively. For the experimental preparation, water at about 26° C. was filled in the water tank up to a height of about 1 cm from the top of the platform and a white water paint was dissolved.
At a first experimental day, the mouse was flooded at one position of the prepared water tank and swam for 3 minutes and then induced to move to the platform location by an experimenter's hand after 3 minutes and left for 1 minute on the platform. After 1 minute, the mouse was lifted and covered by both hands and put in a cage again after 1 minute. This process was repeated three times. […] The process was repeated everyday until a difference between mouse groups was decreased. At the final experimental day, the mouse was flooded in the water tank after removing the platform in the water tank and a video for 90 seconds was recorded and then a moving path and the number of platform pass times of the mouse in the water tank, a time latency of the platform location, and the like were analyzed by using analysis software.
After 1 mg/kg of PBS or sodium taurodeoxycholate was injected to a control mouse and an Alzheimer's mouse (4 per group) twice a week and a total of 20 times, a result of evaluation a spatial learning ability through a water maze experiment was illustrated in FIG. 2. It was verified that a time required when the Alzheimer's mouse found the platform was shortened by administrating the sodium taurodeoxycholate drug.
After 1 mg/kg of PBS or sodium taurodeoxycholate was injected to a control mouse and an Alzheimer's mouse (more than 10 per group) twice a week and a total of 20 times, a mouse behavior pattern was tracked in the water tank without the platform. A representative image of the result of tracking the mouse movement in the water tank without the platform was illustrated in FIG. 3.
In the above experiment, the result of measuring the number of times when the mouse crossed the platform location and a time latency at the platform location was illustrated in FIG. 4 and in the sodium taurodeoxycholate administration mouse group, it was verified that the degree of memorizing the platform was high.

[6] abbreviates: probe test without platform, FIG. 4.

SMILES strings stand for the structures.

On to `C[C@H](CCC(=O)NCCS(=O)(=O)[O-])[C@H]1CC[C@H]2[C@@H]3CC[C@@H]4C[C@H](O)CC[C@]4(C)[C@H]3C[C@H](O)[C@]12C.[Na+]` [sodium taurodeoxycholate], for which the “amount of CCL3 in the blood” value in the experiment on Alzheimer's animal model [1] is on record as “increased”. The “amount of glucose in the blood” value in the experiment on Alzheimer's animal model [2] is recorded as “decreased”. Further, the “apoptotic region in the brain tissue” value in experiment [3] is “reduced”. Besides, the “expression of iNOS” value in experiment [4] (frontal cortex area, FIG. 7) was “significantly reduced”. In addition, in experiment [4] (frontal cortex, FIGS. 5 and 6), the “cell distribution of astrocyte” value is reported as “significantly reduced”, the “cell distribution of microglia” value is recorded as “significantly reduced” and the “formation of the amyloid β plague” value is “significantly reduced”. In experiment [4] (hippocampus area, FIGS. 5 and 6), the astrocyte cell distribution result is listed as “significantly reduced”. In experiment [5] (setting [6]), the “number of times of crossing the platform location” value is “significantly increased” and the “time latency at the platform location” value is given as “significantly increased”. Besides, in experiment [5] (water maze, FIG. 2), the “time required when the Alzheimer's mouse found the platform” value is on record as “shortened”. In addition, the “moving pattern to the position of the platform” value in experiment [5] (water tank without platform, FIG. 3) is reported as “more actively observed”. Moreover, the “degree of memorizing the platform” value in experiment [5] (water tank without platform, FIG. 4) was “high”.
